Earlier results as cited in US20110053172A1, “ONE STEP NANOSENSOR FOR SINGLE AND MULTIDRUG RESISTANCE IN ACUTE CORONARY SYNDROME (ACS)” (UNIVERSITY OF CALCUTTA, priority 2009, published 2011).

Settings: in comparison to aspirin; P=0.043

SMILES: COC(=O)[C@H](c1ccccc1Cl)N1CCc2sccc2C1 [clopidogrel]
- relative risk reduction in stroke, myocardial infarction, or ischaemic death: 8.7%
